Source: ChEMBL document CHEMBL1130971, “Endothelin antagonists: evaluation of 2,1,3-benzothiadiazole as a methylendioxyphenyl bioisoster” (Bioorg Med Chem Lett, 1998)
pIC50: −log10 of the molar value.

Assays:
Endothelin-1 receptor = biological target: T1, Endothelin-1 receptor (Rattus norvegicus, UniProt P26684); assay: Inhibition of [125I]ET1 binding to rat aorta membrane Endothelin A receptor
T1 sequence (P26684 whole entry): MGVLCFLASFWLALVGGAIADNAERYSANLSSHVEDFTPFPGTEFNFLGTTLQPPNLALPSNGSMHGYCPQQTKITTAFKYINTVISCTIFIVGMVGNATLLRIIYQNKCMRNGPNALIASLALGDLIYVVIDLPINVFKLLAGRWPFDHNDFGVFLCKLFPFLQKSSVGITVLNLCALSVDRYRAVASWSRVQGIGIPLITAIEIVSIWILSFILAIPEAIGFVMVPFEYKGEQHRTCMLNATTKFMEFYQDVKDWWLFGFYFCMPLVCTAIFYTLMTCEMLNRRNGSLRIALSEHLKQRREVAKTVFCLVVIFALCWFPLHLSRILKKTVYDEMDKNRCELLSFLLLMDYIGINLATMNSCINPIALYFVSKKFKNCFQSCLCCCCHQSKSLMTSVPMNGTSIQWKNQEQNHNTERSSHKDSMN

[1] = biological target: Endothelin-1 receptor (Rattus norvegicus); assay: pA2 value towards endothelin receptor A was determined as functional ETA antagonism

Compound | pIC50 (Endothelin-1 receptor) | Kb [1] [nM]
CCCOc1ccc2c(c1)c(-c1ccc3c(c1)OCO3)c(C(=O)O)n2Cc1ccc2c(c1)OCO2 | 6.60 | –
COc1cc2c(-c3ccc4c(c3)OCO4)c(C(=O)O)n(Cc3ccc4c(c3)OCO4)c2cc1OC | 6.82 | –
CN(C)c1cccc2c(S(=O)(=O)Nc3ccc4c(c3)OCO4)cccc12 | 6.43 | –
CCCOc1ccc2c(c1)c(-c1ccc(OC)cc1)c(C(=O)O)n2Cc1cc2nsnc2cc1C | 6.80 | –
COc1ccc(C(=O)/C(Cc2cc(OC)c(OC)c(OC)c2)=C(\C(=O)O)c2ccc3nsnc3c2)cc1 | – | 3.16
COc1ccc(-c2c(C(=O)O)c(=O)n(Cc3ccc4nsnc4c3)c3c2oc2ccccc23)cc1 | 6.41 | –
COc1cc2c(-c3ccc4c(c3)OCO4)c(C(=O)O)n(Cc3ccc4nsnc4c3)c2cc1OC | 7.48 | –
CCCOc1ccc2c(c1)c(-c1ccc(OC)cc1)c(C(=O)O)n2Cc1ccc2nsnc2c1 | 6.68 | –
CCCOc1ccc2c(c1)c(-c1ccc3c(c1)OCO3)c(C(=O)O)n2Cc1ccc2nsnc2c1 | 7.01 | –
CCCOc1ccc2c(c1)c(-c1ccc3c(c1)OCO3)c(C(=O)O)n2Cc1ccc2nonc2c1 | 5.60 | –
COc1ccc(C2(O)OC(=O)C(c3ccc4nsnc4c3)=C2Cc2cc(OC)c(OC)c(OC)c2)cc1 (stereo not drawn) | 9.52 | –
COc1ccc(-c2c(C(=O)O)c(=O)n(Cc3ccc4c(c3)OCO4)c3c2oc2ccccc23)cc1 | 5.89 | –
COc1ccc(C(=O)/C(Cc2cc(OC)c(OC)c(OC)c2)=C(\C(=O)O)c2ccc3c(c2)OCO3)cc1 [PD-156707 SODIUM] | – | 25.1
